{"source": "patent US20060088475A1", "about": "“Self-immolative magnetic resonance imaging contrast agents sensitive to beta-glucuronidase” (Northwestern University, priority 2004, published 2006)", "key": {"[1]": {"settings": "phenol of the linker; cited from earlier work"}, "[2]": {"target": "T1, bovine liver β-glucuronidase (Bos taurus, UniProt A3KMY8)", "T1 construct": "β-glucuronidase isolated from bovine liver was chosen for the current studies; purchased Sigma G 0251; host or cells: bovine liver (tissue isolate)", "T1 sequence (A3KMY8 1-652)": "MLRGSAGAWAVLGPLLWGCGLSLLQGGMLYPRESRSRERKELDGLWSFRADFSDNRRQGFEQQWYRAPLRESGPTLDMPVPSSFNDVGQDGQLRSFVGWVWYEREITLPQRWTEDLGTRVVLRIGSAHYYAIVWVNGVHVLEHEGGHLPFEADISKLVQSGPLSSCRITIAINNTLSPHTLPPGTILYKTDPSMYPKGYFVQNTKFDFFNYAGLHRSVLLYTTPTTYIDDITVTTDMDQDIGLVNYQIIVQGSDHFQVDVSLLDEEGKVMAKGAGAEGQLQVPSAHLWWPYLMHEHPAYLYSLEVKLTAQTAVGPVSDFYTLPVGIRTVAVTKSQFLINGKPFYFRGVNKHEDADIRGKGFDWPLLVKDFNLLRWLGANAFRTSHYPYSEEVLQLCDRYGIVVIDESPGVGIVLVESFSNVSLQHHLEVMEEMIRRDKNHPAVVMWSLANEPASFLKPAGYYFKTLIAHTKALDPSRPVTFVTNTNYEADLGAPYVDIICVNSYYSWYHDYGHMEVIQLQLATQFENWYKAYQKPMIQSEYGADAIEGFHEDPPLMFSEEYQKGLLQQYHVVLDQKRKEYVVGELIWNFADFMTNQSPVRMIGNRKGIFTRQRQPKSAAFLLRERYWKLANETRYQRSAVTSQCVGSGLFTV", "assay": "LC-MS analysis of the enzyme reaction mixture", "format": "biochemical", "settings": "phosphate buffer with 0.01% BSA, pH=7.4, 37° C., after 24 h", "description": "LC-MS. […] The alcohol and 1 are readily distinguished by their absorption spectra (PDA), their appropriate negative mode ESI-MS patterns and through spiking with authentic compound. 2 was more difficult to detect but could be observed using fluorescence. The HPLC method was as follows: 0-10% B over 10 min, hold at 10% B for 15 min, with fluorescence using λex=271 nm, λem=314 nm."}, "[3]": {"tested_on": "bovine liver β-glucuronidase", "assay": "Enzyme catalyzed hydrolysis kinetics monitored by bulk water T1 relaxation (magnetic resonance)", "format": "biochemical", "settings": "acetate buffer, over the course of an hour, no enzyme", "description": "(§1) General: Bovine liver β-glucuronidase (Type B-1, Sigma G 0251) stability in several buffers was assayed by incubating the enzyme in the desired buffer and sampling its activity at various time intervals using the Sigma quality control assay for β-glucuronidase from bovine liver. It was determined that MOPS and anion mimic (See, e.g., Parker, D. In Crown Compounds: Towards Future Applications; Cooper, S. R., Ed.; VCH: New York, 1992, pp 51-67) engendered the enzyme with poor stability, while 100 mM phosphate with 0.01% (w/v) bovine serum albumin (BSA), pH=7.4 at 37° C. gave suitable stability (>2 h at 37° C. without loss of activity) provided the enzyme concentration was greater than 0.5 mg/ml. The enzyme was stable for at least 24 h at 37° C. at its native pH of 5.0 in 100 mM acetate buffer. All kinetics measurements were made with 0.2 mM substrate, 1, in 510 μL buffer with either 1.0 mg/ml enzyme (those buffers at pH=7.4) or 0.1 mg/ml enzyme (pH=5.0 acetate buffer). For all buffers except serum (due to its opacity), the kinetics were determined simultaneously by both UV-visible and magnetic resonance. The runs were all continuous assays that are known to give the best data (See, e.g., Marangoni, A. G. Enzyme kinetics: a modern approach; Wiley-Interscience: Hoboken, N.J., 2003; Copeland, R. A. Enzymes: a practical introduction to structure, mechanism, and data analysis; VCH Publishers: New York, N.Y., 1996). Each run was performed in triplicate and two controls, one without enzyme and one without substrate, were also measured. […] This trend is in the opposite direction of the kinetics runs that show an increase in T1.\n(§2) Magnetic Resonance: T1 was determined at intervals of 2 minutes for the first 30 min and 4 minutes for the next 30 min using a saturation recovery (90-T-90) pulse sequence using the Bruker mq60 operating as detailed in the relaxivity section. This sequence is less accurate than the inversion recovery method, but gives faster results. The runs were performed in triplicate. The substrate-only control was also examined in this manner."}, "[4]": {"target": "T1, bovine liver β-glucuronidase", "assay": "Enzyme catalyzed hydrolysis kinetics monitored by bulk water T1 relaxation (magnetic resonance)", "format": "biochemical", "description": "as §1, §2"}, "[5]": {"assay": "T1 relaxivity at 60 MHz, 37° C. (inversion recovery, Gd(III) concentration by ICP-MS)", "format": "physicochemical", "settings": "for relaxivity r1 / increase in relaxivity on going from anion mimic to human serum: 37° C.; for decrease of relaxivity on addition of carbonate to the buffers: 24 mM carbonate added to MOPS or phosphate/BSA buffer; for decline of relaxivity in anion extracellular mimic: anion extracellular mimic (100 mM NaCl, 0.9 mM Na2HPO4, 30 mM NaHCO3, 0.13 mM sodium citrate, 2.3 mM sodium lactate) versus carbonate-containing buffers; for increase in relaxivity on going from anion mimic to human serum: male human blood serum versus extracellular anion mimic", "description": "A 4 mM stock solution of either 1 or 2 in the appropriate buffer was diluted to give 500 μL each of seven approximate concentrations for each run: 0, 0.05, 0.15, 0.3, 0.5, 1.0, and 2.0 mM. The T1 of each concentration was determined using an inversion recovery pulse sequence with appropriate recycle delays on a Bruker mq60 Minispec. This instrument has a proton Larmor frequency of 60 MHz and operates at 37° C. The resulting curves were fit to a monoexponential function to obtain T10.10 μL of each sample was digested in concentrated nitric acid, diluted with water and analyzed for exact Gd(III) concentration using ICP-MS. The reciprocal of the longitudinal relaxation time was plotted against the concentration obtained from ICP-MS and fit to a straight line. All lines fit with R^2>0.998. This was performed for each buffer in duplicate. The buffers were all made to have the appropriate pH at 37° C. and remade if the pH had drifted more than 0.05 pH units upon storage. Anion mimic and carbonate containing buffers were made fresh daily."}, "[6]": {"target": "T1, bovine liver β-glucuronidase", "assay": "Enzyme catalyzed hydrolysis kinetics monitored by UV-visible", "format": "biochemical", "settings": "for initial rate: 0.2 mM 1, 1.0 mg/ml enzyme, pH 7.4, 37° C.", "description": "as §1\nUV-visible: The enzymatic hydrolysis of the pyranose from 1 and subsequent linker decomposition generates 4-hydroxy-3-nitrobenzyl alcohol. This compound has a maximum absorbance of 422 nm at pH=7.4. The molar absorptivity, E, was determined in triplicate from 0-0.2 mM, on an HP 8452A diode array spectrometer thermostated to 37° C. For 100 mM phosphate, 0.01% (w/v) BSA, pH=7.4 at 37° C. it is 2840±40 M^−1 cm^−1. For 100 mM phosphate, 24 mM NaHCO3, 0.01% (w/v) BSA, pH=7.4 at 37° C. it is 3010±50 M^−1 cm^−1. […] At pH=5.0 in acetate buffer, the maximum is at 354 nm. This overlaps with substrate, 1, absorption. The kinetics were sampled on the HP 8452A at 37° C. every 20 seconds for an hour. The initial rates for pH=7.4 buffers were determined through a linear fit of the first 10% change in absorbance. For the acetate buffer, only a half-life of conversion is reported. […] 4-hydroxy-3-nitrobenzyl alcohol was also present in the acetate runs as determined by LC-MS using 100 mM acetate pH=5 as solvent A."}, "[7]": {"assay": "Determination of q via Eu(III) phosphorescence lifetimes in H2O and D2O", "format": "physicochemical", "description": "Determination of q: Europium(III) compound 4 was dissolved in H2O and D2O. The emission was monitored at 614 nm with excitation at 394 nm on a Hitachi F4500 fluorometer operating in Phosphorescence Lifetime (short) mode. The shortest lifetime measurable with this instrument is about 0.3 ms. Fifteen scans were averaged and fit to a monoexponential decay to give phosphorescent lifetimes. T(D2O)=1.274 ms; T (H2O)=0.527 ms. Using the equation of Supkowski and Horrocks (See, e.g., Supkowski and Horrocks, Inorg. Chim. Acta 2002, 340, 44-48), q=0.89 while the equation from Beeby et al. ^40generates q=1.04."}, "[8]": {"settings": "10 mM MOPS, 100 mM NaCl, pH=7.4, 60 MHz"}, "[9]": {"settings": "10 mM pyridine, 100 mM sodium chloride buffer, pH=5.0, 60 MHz"}, "[10]": {"settings": "100 mM acetate buffer, pH=5.0, 60 MHz"}, "[11]": {"settings": "100 mM sodium phosphate, 0.01% (w/v) BSA, pH=7.4, 60 MHz"}}, "data": [{"molecule": "O=[N+]([O-])c1cc(CO)ccc1O", "note": "[4-hydroxy-3-nitrobenzyl alcohol]", "values": [{"measurement": "pKa", "setting": "[1]", "result": "about 7.5"}]}, {"molecule": "O=C([O-])CN1CCN(CCNC(=O)OCc2ccc(O[C@@H]3O[C@H](C(=O)O)[C@@H](O)[C@H](O)[C@H]3O)c([N+](=O)[O-])c2)CCN(CC(=O)[O-])CCN(CC(=O)[O-])CC1.[Gd+3]", "note": "[Compound 1, Gadolinium(III) 1-(4-(2-(1-(4,7,10-tris-carboxymethyl-(1,4,7,10-tetrazaacyclododecyl)))-ethylcarbamoyloxymethyl)-2-nitrophenyl)-β-D-glucopyronuronate]", "values": [{"measurement": "presence of substrate in reaction mixture by LC/MS", "setting": "[2]", "result": "disappeared"}, {"measurement": "decrease in T1 of substrate control without enzyme", "setting": "[3]", "result": 2, "unit": "%"}, {"measurement": "increase in T1 during enzyme incubation (levels off)", "setting": "[4]; 0.2 mM 1, 0.1 mg/ml β-glucuronidase, acetate buffer pH=5.0, around 35 min", "result": 15, "unit": "%"}, {"measurement": "increase in T1 during enzyme incubation", "setting": "[4]; 0.2 mM 1, 1.0 mg/ml β-glucuronidase, human serum, over one hour, curve not saturated", "result": 14, "unit": "%"}, {"measurement": "relaxivity r1", "setting": "[5]; [8]", "result": "higher value"}, {"measurement": "relaxivity r1", "setting": "[5]; [9]", "result": "3.89 ± 0.05", "unit": "mM⁻¹ s⁻¹"}, {"measurement": "decrease of relaxivity on addition of carbonate to the buffers", "setting": "[5]; pH=7.4", "result": "20-30%"}, {"measurement": "relaxivity r1", "setting": "[5]; [10]", "result": "2.53 ± 0.01", "unit": "mM⁻¹ s⁻¹"}, {"measurement": "relaxivity r1", "setting": "[5]; [11]", "result": 4.73, "unit": "mM⁻¹ s⁻¹"}, {"measurement": "decrease in relaxivity between the pure compounds (1 to 2)", "setting": "[5]; acetate buffer, pH=5.0", "result": 15, "unit": "%"}, {"measurement": "increase in relaxivity from 1 to 2 (dark to bright change)", "setting": "[5]; anion extracellular mimic", "result": 17, "unit": "%"}, {"measurement": "decline of relaxivity in anion extracellular mimic", "setting": "[5]", "result": 22, "unit": "%"}, {"measurement": "relaxivity differential, 1 brighter than 2", "setting": "[5]; human serum", "result": 27, "unit": "%"}, {"measurement": "increase in relaxivity on going from anion mimic to human serum", "setting": "[5]", "result": 240, "unit": "%"}, {"measurement": "drop in relaxivity upon going from 1 to 2", "setting": "[5]; phosphate/BSA buffer (same trend as MOPS), pH=7.4", "result": 20, "unit": "%"}, {"measurement": "initial rate", "setting": "[6]; phosphate/BSA (100 mM sodium phosphate, 0.01% BSA)", "result": "158 ± 34", "unit": "nmol product/h/mg enzyme"}, {"measurement": "initial rate", "setting": "[6]; phosphate/BSA/carbonate (24 mM NaHCO3)", "result": "148 ± 26", "unit": "nmol product/h/mg enzyme"}, {"measurement": "time to complete conversion", "setting": "[6]; pH=5 acetate buffer, enzyme concentration 10% of that at pH=7.4", "result": "≤ 45", "unit": "min"}, {"measurement": "initial rate at pH=7.4 relative to standard substrate 4-methylumbelliferyl-β-D-glucuronide at pH=5.5", "setting": "[6]; pH=7.4 versus literature pH=5.5 data", "result": "roughly 8%"}]}, {"molecule": "NCCN1CCN(CC(=O)[O-])CCN(CC(=O)[O-])CCN(CC(=O)[O-])CC1.[Gd+3]", "note": "[Compound 2, Gadolinium(III)1-(2-aminoethyl)-4,7,10-(tris-carboxymethyl)-(1,4,7,10-tetrazaacyclododecane)]", "values": [{"measurement": "relaxivity r1", "setting": "[5]; [8]", "result": "comparable to GdHP-DO3A"}, {"measurement": "relaxivity r1", "setting": "[5]; [9]", "result": "4.16 ± 0.09", "unit": "mM⁻¹ s⁻¹"}, {"measurement": "decrease of relaxivity on addition of carbonate to the buffers", "setting": "[5]; pH=7.4", "result": "remained the same within error"}, {"measurement": "relaxivity r1", "setting": "[5]; [10]", "result": "2.16 ± 0.04", "unit": "mM⁻¹ s⁻¹"}, {"measurement": "relaxivity r1", "setting": "[5]; [11]", "result": 3.68, "unit": "mM⁻¹ s⁻¹"}, {"measurement": "decline of relaxivity in anion extracellular mimic", "setting": "[5]", "result": 6, "unit": "%"}, {"measurement": "increase in relaxivity on going from anion mimic to human serum", "setting": "[5]", "result": 150, "unit": "%"}]}, {"molecule": "CC(O)CN1CCN(CC(=O)[O-])CCN(CC(=O)[O-])CCN(CC(=O)[O-])CC1.[Gd+3]", "note": "(stereo not drawn) [GdHP-DO3A, reference compound]", "values": [{"measurement": "relaxivity r1", "setting": "[5]; [8]", "result": "2.99 ± 0.44", "unit": "mM⁻¹ s⁻¹"}]}, {"molecule": "Europium(III) 1-(4-(2-(1-(4,7,10-tris-carboxymethyl-(1,4,7,10-tetrazaacyclododecyl)))-ethylcarbamoyloxymethyl)-2-nitrophenyl)-β-D-glucopyronuronate [Compound 4]", "values": [{"measurement": "phosphorescent lifetime T(D2O)", "setting": "[7]; D2O, excitation 394 nm, emission 614 nm", "result": 1.274, "unit": "ms"}, {"measurement": "q (inner-sphere water molecules)", "setting": "[7]; Eu(III) fluorescence, absence of buffer salts", "result": 1}, {"measurement": "phosphorescent lifetime T (H2O)", "setting": "[7]; H2O, excitation 394 nm, emission 614 nm", "result": 0.527, "unit": "ms"}, {"measurement": "q (inner-sphere water molecules)", "setting": "[7]; equation from Beeby et al.", "result": 1.04}, {"measurement": "q (inner-sphere water molecules)", "setting": "[7]; equation of Supkowski and Horrocks", "result": 0.89}]}]}
